{"source": "ChEMBL document CHEMBL4414664", "about": "“An Effective Strategy for Identification of Highly Unstable Bacillaenes” (2019)", "key": {"Enterococcus faecium [1]": {"tested_on": "Enterococcus faecium", "test": "Antibacterial activity against Enterococcus faecium CCARM 5203 assessed as reduction in bacterial growth at 12.5 ug/ml incubated for 18 hrs by serial dilution method relative to control", "type": "functional"}, "Escherichia coli": {"tested_on": "Escherichia coli", "test": "Antibacterial activity against Escherichia coli CCARM 1009 assessed as inhibition zone at 10 mg/ml incubated for 18 hrs by radial diffusion assay", "type": "functional, organism-based"}, "Salmonella typhimurium": {"tested_on": "Salmonella typhimurium", "test": "Antibacterial activity against Salmonella typhimurium CCARM 8250 assessed as inhibition zone at 10 mg/ml incubated for 18 hrs by radial diffusion assay", "type": "functional, organism-based", "conditions": "Salmonella enterica subsp. enterica serovar Typhimurium"}, "Enterococcus faecium [2]": {"tested_on": "Enterococcus faecium", "test": "Antibacterial activity against Enterococcus faecium CCARM 5203 assessed as inhibition zone at 10 mg/ml incubated for 18 hrs by radial diffusion assay", "type": "functional, organism-based"}}, "note": "The source made the active and inactive calls. The rule behind the calls is not given here.", "data": [{"smiles": "C/C(=C/C=C/C=C/C(C)C(=O)O)NC(=O)CC(O)\\C(C)=C/C=C\\C=C(C)\\C=C\\C=C/CCCNC(=O)C(O)CC(C)C", "note": "(centres undefined)", "values": [{"measurement": "growth inhibition (GI)", "setting": "Enterococcus faecium [1]", "result": "Active"}]}, {"smiles": "C/C(=C/C=C/C=C/C(C)C(=O)O)NC(=O)CC(O)\\C(C)=C/C=C\\C=C(C)\\C=C\\C=C\\CCCNC(=O)C(CC(C)C)O[C@@H]1O[C@H](CO)[C@@H](O)[C@H](O)[C@H]1O", "note": "(some centres undefined)", "values": [{"measurement": "inhibition zone (IZ)", "setting": "Escherichia coli", "result": "inactive"}, {"measurement": "inhibition zone (IZ)", "setting": "Salmonella typhimurium", "result": "inactive"}, {"measurement": "inhibition zone (IZ)", "setting": "Enterococcus faecium [2]", "result": "inactive"}]}, {"smiles": "C/C(=C/C=C/C=C/C(C)C(=O)O)NC(=O)CC(O)\\C(C)=C/C=C\\C=C(C)\\C=C\\C=C/CCCNC(=O)C(CC(C)C)O[C@@H]1O[C@H](CO)[C@@H](O)[C@H](O)[C@H]1O", "note": "(some centres undefined)", "values": [{"measurement": "inhibition zone (IZ)", "setting": "Escherichia coli", "result": "inactive"}, {"measurement": "inhibition zone (IZ)", "setting": "Salmonella typhimurium", "result": "inactive"}, {"measurement": "inhibition zone (IZ)", "setting": "Enterococcus faecium [2]", "result": "inactive"}, {"measurement": "growth inhibition (GI)", "setting": "Enterococcus faecium [1]", "result": "inactive"}]}, {"smiles": "C/C(=C/C=C/C=C/C(C)C(=O)O[C@@H]1O[C@H](CO)[C@@H](O)[C@H](O)[C@H]1O)NC(=O)CC(O)\\C(C)=C/C=C\\C=C(C)\\C=C\\C=C/C=C/CNC(=O)C(O)CC(C)C", "note": "(some centres undefined)", "values": [{"measurement": "inhibition zone (IZ)", "setting": "Escherichia coli", "result": "inactive"}, {"measurement": "inhibition zone (IZ)", "setting": "Salmonella typhimurium", "result": "inactive"}, {"measurement": "inhibition zone (IZ)", "setting": "Enterococcus faecium [2]", "result": "inactive"}]}, {"smiles": "C/C(=C/C=C/C=C/C(C)C(=O)O)NC(=O)CC(O)\\C(C)=C/C=C\\C=C(C)\\C=C\\C=C/C=C/CNC(=O)C(O)CC(C)C", "note": "(centres undefined)", "values": [{"measurement": "inhibition zone (IZ)", "setting": "Escherichia coli", "result": "Active"}, {"measurement": "inhibition zone (IZ)", "setting": "Salmonella typhimurium", "result": "Active"}, {"measurement": "inhibition zone (IZ)", "setting": "Enterococcus faecium [2]", "result": "Active"}, {"measurement": "inhibition of growth at 12.5 µg/mL", "setting": "Enterococcus faecium [1]; CCARM 5203, 18 h, read-out: GI", "result": "> 80", "unit": "%"}]}, {"smiles": "C/C(=C/C=C/C=C/C(C)C(=O)O)NC(=O)CC(O)\\C(C)=C/C=C\\C=C(C)\\C=C\\C=C/C=C/CNC(=O)C(CC(C)C)O[C@@H]1O[C@H](CO)[C@@H](O)[C@H](O)[C@H]1O", "note": "(some centres undefined)", "values": [{"measurement": "inhibition zone (IZ)", "setting": "Escherichia coli", "result": "inactive"}, {"measurement": "inhibition zone (IZ)", "setting": "Salmonella typhimurium", "result": "inactive"}, {"measurement": "inhibition zone (IZ)", "setting": "Enterococcus faecium [2]", "result": "inactive"}, {"measurement": "growth inhibition (GI)", "setting": "Enterococcus faecium [1]", "result": "inactive"}]}]}
